How the values were obtained:
Assay in all cases: in vitro NanoGlo kinase activity assay, n=[…]
Assay type in all cases: biochemical
[1] = molecular target: CLK1 (Homo sapiens, UniProt P49759)
[2] = molecular target: CLK3 (Homo sapiens, UniProt P49761)
[3] = molecular target: CLK2 (Homo sapiens, UniProt P49760)
Sequence of CLK2 (P49760 whole entry): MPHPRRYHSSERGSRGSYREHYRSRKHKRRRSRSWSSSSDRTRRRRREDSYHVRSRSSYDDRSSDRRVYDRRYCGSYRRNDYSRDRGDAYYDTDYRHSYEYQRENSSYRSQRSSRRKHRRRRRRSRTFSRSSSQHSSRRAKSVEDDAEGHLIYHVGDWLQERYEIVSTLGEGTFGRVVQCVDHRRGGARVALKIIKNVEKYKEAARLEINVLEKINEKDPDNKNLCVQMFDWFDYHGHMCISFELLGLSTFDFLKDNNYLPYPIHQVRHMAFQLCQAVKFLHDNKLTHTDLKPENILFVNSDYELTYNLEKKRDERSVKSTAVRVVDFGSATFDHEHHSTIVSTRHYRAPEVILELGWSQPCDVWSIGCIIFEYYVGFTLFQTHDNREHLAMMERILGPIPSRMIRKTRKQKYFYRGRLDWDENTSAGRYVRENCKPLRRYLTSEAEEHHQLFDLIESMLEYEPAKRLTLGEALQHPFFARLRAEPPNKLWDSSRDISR

Sequence of CLK1 (P49759 whole entry): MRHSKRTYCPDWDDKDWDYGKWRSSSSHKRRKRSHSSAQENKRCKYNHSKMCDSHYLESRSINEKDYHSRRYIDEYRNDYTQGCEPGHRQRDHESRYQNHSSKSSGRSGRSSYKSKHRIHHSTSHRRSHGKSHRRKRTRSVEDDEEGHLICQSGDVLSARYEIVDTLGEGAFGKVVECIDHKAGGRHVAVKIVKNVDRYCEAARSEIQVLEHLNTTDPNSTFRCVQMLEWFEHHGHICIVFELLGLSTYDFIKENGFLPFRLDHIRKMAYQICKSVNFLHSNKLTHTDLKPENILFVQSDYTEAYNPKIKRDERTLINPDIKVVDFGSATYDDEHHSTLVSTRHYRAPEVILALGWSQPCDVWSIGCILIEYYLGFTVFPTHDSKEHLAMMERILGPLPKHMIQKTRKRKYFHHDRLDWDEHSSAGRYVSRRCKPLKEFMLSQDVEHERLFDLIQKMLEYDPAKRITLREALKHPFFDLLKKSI
Sequence of CLK3 (P49761 whole entry): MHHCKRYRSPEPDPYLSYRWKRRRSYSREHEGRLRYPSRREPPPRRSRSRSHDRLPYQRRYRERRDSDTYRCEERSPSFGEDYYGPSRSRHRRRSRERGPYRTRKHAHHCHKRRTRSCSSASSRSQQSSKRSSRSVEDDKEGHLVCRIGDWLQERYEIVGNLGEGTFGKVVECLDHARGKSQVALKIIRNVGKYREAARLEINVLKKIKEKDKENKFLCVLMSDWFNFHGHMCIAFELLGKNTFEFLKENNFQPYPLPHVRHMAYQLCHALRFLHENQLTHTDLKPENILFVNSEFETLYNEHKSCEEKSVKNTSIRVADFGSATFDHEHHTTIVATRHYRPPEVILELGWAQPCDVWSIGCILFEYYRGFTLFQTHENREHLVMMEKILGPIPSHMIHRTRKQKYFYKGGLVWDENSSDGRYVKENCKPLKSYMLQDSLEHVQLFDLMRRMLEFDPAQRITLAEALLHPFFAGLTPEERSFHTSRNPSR

O=C(Nc1cc(C2CCCC2)n[nH]1)c1ccc2c(c1)[nH]c(=O)n2C1CCCC1 [SR-1815]
IC50 [1]: 446 nM | IC50 [2]: 6800 nM | IC50 [3]: 605 nM
